Measurements published in publication PMC8746705, “Comparison of Experimental Strategies to Study L-Type Amino Acid Transporter 1 (LAT1) Utilization by Ligands” (Molecules, 2021).

What was measured:
[1] = Stability / bioconversion of prodrugs to parent drugs (biological media, 0.1 M NaOH cell lysing); assay type: in vitro ADME; details: cell lysate samples for LC-MS/MS (Table S1 footnote)
Excerpt: LAT1-utilizing prodrugs 1–15 (Figure 1) were selected for this study based on their ability to utilize LAT1 expressed in cells used in our previous studies. Therefore, the syntheses of these compounds are not described herein as they have been reported earlier. These compounds include prodrugs of an investigational immunosuppressive agent, perforin inhibitor (1), non-steroidal anti-inflammatory drugs (NSAIDs), ketoprofen (2–4, 14), salicylic acid (8), flurbiprofen (9 and 12), ibuprofen (10 and 13) and naproxen (11 and 15), as well as the polyphenolic antioxidant, ferulic acid (5–7). […] In addition, all NSAID prodrugs (compounds 2–4, 9–15) were prepared from their pure S-enantiomers. Prodrugs of ferulic acid (compounds 5–7) were mixtures of E- and […], which were interconvertible over time. […] Therefore, both prodrug and the released parent drug proportions were quantified and taken into account when calculating concentrations transported into the cells.
1. LC-MS/MS ionization parameters of compounds 1-15
Table S1. Ionization parameters for the LC-MS/MS methods of the studied compounds.
Precursor Product Fragmentor Collision Flow rate Gradient LLOQ
Compound ion ion(s) Voltage (V) Energy (mL/min) (A:B) (nM) […]
perforin inhibitor 1a and therefore, their transitions with a positive ion mode are reported only as KPF or as a prodrug and parent drug in parentheses. […]
drugs (ferulic acid (FA), flurbiprofen (FLB), ibuprofen (IBU), and naproxen (NPX), respectively), whose transitions with a negative ion mode are reported below the studied LAT1 -utilizing compounds i n parentheses.

[2] = target: T1, LAT1 (Mus musculus, UniProt Q9Z127); assay: Cellular uptake of L-leucine after pre-incubation of BV2 cells with the compounds; assay type: cell-based; details: 100 µM (L-glutamine 2 mM) pre-incubated 10 min or 3 h, L-leucine 1–400 µM, 5 min
Method: The ability of compounds 1–15 to affect the uptake of a known LAT1 substrate L-leucine was evaluated by pre-incubating the BV2 cells at 37 °C for 10 min or 3 h with uptake buffer pH 7.4 (250 μL) containing 100 µM of compounds 1–15 or thyroxin (T4), or known nuclear receptor inducible compounds, phenobarbital (constitutive androstane receptor, CAR), and dexamethasone (pregnane X receptor, PXR) as controls. […] After incubation, the reaction was stopped by adding 250 µL of ice-cold HBSS, and the cells were washed two times with ice-cold HBSS. The cells were then lysed with 500 μL of 0.1 M NaOH (60 min) and the lysate was mixed with 3.5 mL of Emulsifier safe cocktail (Ultima Gold, PerkinElmer, Waltham, MA, USA). The radioactivity in the cells was measured by liquid scintillation counting (MicroBeta^2 counter, PerkinElmer Waltham, MA, USA). The results were multiplied by the amount of un-labeled proportion of L-leucine in each sample.

[3] = Liver lysosomal accumulation after i.p. dose to mice; assay type: in vivo; details: mouse liver; parent drug of the named prodrug
Method: Adult male mice weighing 25 ± 5 g were supplied by Envigo (Venray, Netherlands). Mice were housed in stainless steel cages on a 12 h light (07:00–19:00) and 12 h dark (19:00–07:00) cycle at an ambient temperature of 22 ± 1 °C with a relative humidity of 50–60%. All experiments were carried out during the light phase. Tap water and food pellets (Lactamin R36; Lactamin AB, Södertälje, Sweden) were available ad libitum. A dose of 25 µmol/kg of compound 1, 2, or 8–11 was given as a bolus injection (i.p.) to mice. The mice were decapitated at selected time points between (10–360 min) and brain tissues were collected for sample preparation to be analyzed by liquid chromatography-mass spectrometric (LC-MS/MS) analysis.
The liver lysosomal samples (10–120 min; tmax) were prepared by homogenizing the pre-weigh tissues with ice-cold 0.25 M sucrose (1:3). […] Samples were vortexed and centrifuged at 10,000× g at 4 °C for 10 min and injected to LC-MS/MS to quantify the total drug amount in tissue as a control to lysosomal samples. […] The concentration of compounds in the crude lysosomal fractions were then analyzed with LC-MS/MS. Both the total liver tissue accumulation as well as the lysosomal fraction (including the possibly released parent drugs) were calculated from the standard curve that was prepared by spiking known amounts of compounds to ACN, including the selected internal standard. […]

[4] = target: T1, LAT1; set-up: method as in earlier work; details: BV2 cells; probe [14C]-L-Leu; mean ± SD; published earlier; ref [31] or [33]; read-out: IC50 of [14C]-L-Leu uptake; cited from earlier work

T1 sequence (Q9Z127 whole entry): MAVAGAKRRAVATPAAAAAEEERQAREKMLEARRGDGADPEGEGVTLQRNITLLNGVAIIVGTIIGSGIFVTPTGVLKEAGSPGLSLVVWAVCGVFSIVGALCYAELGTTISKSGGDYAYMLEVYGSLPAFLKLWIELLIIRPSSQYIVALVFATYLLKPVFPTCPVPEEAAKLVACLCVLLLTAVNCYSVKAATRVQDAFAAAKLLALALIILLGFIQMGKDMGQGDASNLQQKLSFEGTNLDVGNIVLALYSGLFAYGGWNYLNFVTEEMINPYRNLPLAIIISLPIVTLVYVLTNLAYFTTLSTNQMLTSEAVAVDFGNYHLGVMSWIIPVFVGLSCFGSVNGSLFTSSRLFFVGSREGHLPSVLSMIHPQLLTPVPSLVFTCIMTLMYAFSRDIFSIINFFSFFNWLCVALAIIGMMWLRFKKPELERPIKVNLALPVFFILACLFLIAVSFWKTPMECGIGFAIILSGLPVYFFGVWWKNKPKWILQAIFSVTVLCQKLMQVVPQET
T1 sequence (P10852 whole entry partner): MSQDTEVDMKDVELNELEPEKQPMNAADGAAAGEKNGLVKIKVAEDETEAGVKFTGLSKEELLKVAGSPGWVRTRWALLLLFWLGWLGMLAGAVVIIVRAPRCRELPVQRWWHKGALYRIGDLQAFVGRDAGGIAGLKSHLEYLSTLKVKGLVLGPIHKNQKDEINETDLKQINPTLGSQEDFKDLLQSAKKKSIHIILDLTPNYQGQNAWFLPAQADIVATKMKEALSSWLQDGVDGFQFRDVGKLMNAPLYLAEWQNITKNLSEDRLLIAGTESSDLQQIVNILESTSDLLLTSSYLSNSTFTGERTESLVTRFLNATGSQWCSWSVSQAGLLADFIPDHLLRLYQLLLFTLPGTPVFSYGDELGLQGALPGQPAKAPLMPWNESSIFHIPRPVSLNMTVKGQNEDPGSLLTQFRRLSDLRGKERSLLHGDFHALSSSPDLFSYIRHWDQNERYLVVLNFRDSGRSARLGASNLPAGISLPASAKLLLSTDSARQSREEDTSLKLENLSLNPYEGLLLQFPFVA

Conversion to parent drug in the analysed samples [1] | Compound | also measured
partly | NC(Cc1cccc(C(=O)Oc2ccc(-c3ccc(-c4ccc5c(c4)COC5=O)s3)cc2)c1)C(=O)O (stereo not shown) [Compound 1] | –
– | C[C@H](C(=O)Nc1cccc(C[C@H](N)C(=O)O)c1)c1cccc(C(=O)c2ccccc2)c1 [Compound 2] | Effect on cellular uptake of L-Leu after pre-incubation [2]: induced the uptake of L-Leu; Accumulation of parent drug (dosed as such) into crude lysosomal fraction, of total liver tissue accumulation [3]: no parent drug was detected
partly converted to their parent | COc1ccc2cc([C@H](C)C(=O)Oc3cccc(C[C@H](N)C(=O)O)c3)ccc2c1 [Compound 15] | –
– | N[C@@H](Cc1cccc(NC(=O)c2ccccc2O)c1)C(=O)O [Compound 8] | IC50 [4]: 18.9 ± 1.6 µM
fully converted into ketoprofen | C[C@H](C(=O)Oc1cccc(C[C@H](N)C(=O)O)c1)c1cccc(C(=O)c2ccccc2)c1 [Compound 4] | –
partly converted to their parent | C[C@H](C(=O)Oc1cccc(C[C@H](N)C(=O)O)c1)c1ccc(-c2ccccc2)c(F)c1 [Compound 12] | IC50 [4]: 4.2 ± 1.2 µM
– | COc1cc(C=CC(=O)NCc2cccc(CC(N)C(=O)O)c2)ccc1O (stereo not shown) [Compound 5] | Effect on cellular uptake of L-Leu after pre-incubation [2]: induced the uptake of L-Leu

Compound | Conversion to parent drug in the analysed samples [1] | also measured
COc1cc(/C=C/C(=O)Oc2cccc(C[C@H](N)C(=O)O)c2)ccc1O [Compound 7] | partly converted to their parent | –
